Tests used:
Format in all cases: cell-based
[1] = target: T1, Ba/F3 BCR-ABL1 E255V/T315I (Homo sapiens, UniProt P00519+P11274, E255V/T315I); test: Cell growth inhibitory activity assay (CellTiter-Glo), Ba/F3 BCR-ABL1 E255V/T315I cells; conditions: 72 h, CTG cell viability
T1 construct: BCR (N-terminal fusion partner of the oncoprotein); expressed in transfected cells; host or cells: Ba/F3 (lentiviral transduction, monoclonal line)
Description: (§1) In this assay, the Celltiter-Glo (CTG) kit provided by Promega was used, and it is a homogeneous cell viability assay method. The cell viability of cultured cells was measured by quantifying ATP. K562 cells were purchased from Nanjing Kebai, product number CBP60529; Ba/F3 parental cells were purchased from RIKEN BRC, product number RCB0805; other cells containing BCR-ABL1 WT, BCR-ABL1 T315I, BCR-ABL1 T315M, BCR-ABL1 Y253H/E255K, BCR-ABL1 E255V/T3151, BCR-ABL1 A424T, BCR-ABL1 A337V, BCR-ABL1 P465S, BCR-ABL1 V468F, and BCR-ABL1 I502L were all monoclonal engineered cell lines obtained by transducting Ba/F3 parental cells with the lentivirus plasmids containing WT or corresponding mutated BCR-ABL1.
(§2) The steps of cell viability assay are as follows: • a) Cells in logarithmic growth phase were collected. Cell suspension was prepared and the cells were counted. Concentration of the cells was calculated. • b) The cell suspension was diluted to the required concentration and then added to the middle wells of a 96-well plate, and PBS was added to the edge wells. The wells with no cells and only culture medium were used as blank controls. • c) In addition to the cell plate used for compound analysis, another 96-well plate was prepared as a T0 plate, and 3-6 blank wells and 3-6 cell wells were added. The next day, CTG was used to test the cell viability as the T0 viability value of the cells. • d) The cell plate was incubated at 37 °C in a 5% CO2 incubator overnight. • e) The next day, each concentration of a compound subjected to a gradient dilution was added, and the cell plate was incubated at 37 °C in a 5% CO2 incubator for 72 h. The wells with no compound and only 0.5% DMSO were used as positive controls for cell growth. • f) CTG reagent (CellTiter-Glo kit) was added according to the manufacturer's instructions to test the cell viability value. • g) The plate was read using Biotek cytation3.0 microplate reader and the data were exported. • h) IC50 was calculated using GraphPad Prism 7.0 software.
(§3) The IC50 (half-maximal inhibitory concentration) of the compound was obtained using the following nonlinear fitting formula: Y = Bottom + (Top−Bottom)/(1+10^(∧)((LogIC50−X)*HillSlope)) [formula] • X: Log value of the compound concentration • Y: Inhibition rate (% inhibition) • Top: Maximum response • Bottom: Baseline response • HillSlope: Slope of the curve
(§4) The formula for calculating cell inhibition rate (inhibition rate %) was: [formula]

Ba/F3 BCR-ABL1 I502L = target: T2, Ba/F3 BCR-ABL1 I502L (Homo sapiens, UniProt P00519+P11274, I502L); test: Cell growth inhibitory activity assay (CellTiter-Glo), Ba/F3 BCR-ABL1 I502L cells; conditions: 72 h, CTG cell viability
T2 construct: BCR (N-terminal fusion partner of the oncoprotein); expressed in transfected cells; host or cells: Ba/F3 (lentiviral transduction, monoclonal line)
Description: as §1, §2, §3, §4

Ba/F3 BCR-ABL1 T315M = target: T3, Ba/F3 BCR-ABL1 T315M (Homo sapiens, UniProt P00519+P11274, T315M); test: Cell growth inhibitory activity assay (CellTiter-Glo), Ba/F3 BCR-ABL1 T315M cells; conditions: 72 h, CTG cell viability
T3 construct: BCR (N-terminal fusion partner of the oncoprotein); expressed in transfected cells; host or cells: Ba/F3 (lentiviral transduction, monoclonal line)
Method in brief: (§5)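 Ba/F3 parental cells or Ba/F3 lines lentivirally transduced with WT or mutant BCR-ABL1, seeded overnight then exposed to serially diluted compound 72 h at 37 °C, 5% CO2. Viability by CellTiter-Glo ATP luminescence with a T0 plate; 0.5% DMSO controls; IC50 from four-parameter nonlinear fit.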

Ba/F3 BCR-ABL1 A337V = target: T4, Ba/F3 BCR-ABL1 A337V (Homo sapiens, UniProt P00519+P11274, A337V); test: Cell growth inhibitory activity assay (CellTiter-Glo), Ba/F3 BCR-ABL1 A337V cells; conditions: 72 h, CTG cell viability
T4 construct: BCR (N-terminal fusion partner of the oncoprotein); expressed in transfected cells; host or cells: Ba/F3 (lentiviral transduction, monoclonal line)
Description: as §1, §2, §3, §4

K562 cells = test: Cell growth inhibitory activity assay (CellTiter-Glo), K562 cells; conditions: Homo sapiens, 72 h, CTG cell viability
Method in brief: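 Growth inhibition of human K562 cells, sourced from Nanjing Kebai (CBP60529), was assessed with Promega's CellTiter-Glo kit, which measures viability through ATP quantification. Log-phase cells went into the inner wells of 96-well plates, with PBS in edge wells, incubated overnight at 37 °C and 5% CO2, then exposed to serially diluted compound for 72 h.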

Ba/F3 parental cells = test: Cell growth inhibitory activity assay (CellTiter-Glo), Ba/F3 parental cells; conditions: Mus musculus, BaF3, 72 h, CTG cell viability, read-out: IC50 Ba/F3 BCR-ABL1 Parental
Method in brief: as §5

Ba/F3 BCR-ABL1 WT = target: T5, Ba/F3 BCR-ABL1 WT (Homo sapiens, UniProt P00519+P11274); test: Cell growth inhibitory activity assay (CellTiter-Glo), Ba/F3 BCR-ABL1 WT cells; conditions: 72 h, CTG cell viability
T5 construct: BCR (N-terminal fusion partner of the oncoprotein); expressed in transfected cells; host or cells: Ba/F3 (lentiviral transduction, monoclonal line)
Method in brief: as §5

Ba/F3 BCR-ABL1 V468F = target: T6, Ba/F3 BCR-ABL1 V468F (Homo sapiens, UniProt P00519+P11274, V468F); test: Cell growth inhibitory activity assay (CellTiter-Glo), Ba/F3 BCR-ABL1 V468F cells; conditions: 72 h, CTG cell viability
T6 construct: BCR (N-terminal fusion partner of the oncoprotein); expressed in transfected cells; host or cells: Ba/F3 (lentiviral transduction, monoclonal line)
Description: as §1, §2, §3, §4

Ba/F3 BCR-ABL1 A424T = target: T7, Ba/F3 BCR-ABL1 A424T (Homo sapiens, UniProt P00519+P11274, A424T); test: Cell growth inhibitory activity assay (CellTiter-Glo), Ba/F3 BCR-ABL1 A424T cells; conditions: 72 h, CTG cell viability
T7 construct: BCR (N-terminal fusion partner of the oncoprotein); expressed in transfected cells; host or cells: Ba/F3 (lentiviral transduction, monoclonal line)
Description: as §1, §2, §3, §4

[2] = target: T8, Ba/F3 BCR-ABL1 Y253H/E255K (Homo sapiens, UniProt P00519+P11274, E255K/Y253H); test: Cell growth inhibitory activity assay (CellTiter-Glo), Ba/F3 BCR-ABL1 Y253H/E255K cells; conditions: 72 h, CTG cell viability
T8 construct: BCR (N-terminal fusion partner of the oncoprotein); expressed in transfected cells; host or cells: Ba/F3 (lentiviral transduction, monoclonal line)
Description: as §1, §2, §3, §4

Ba/F3 BCR-ABL1 P465S = target: T9, Ba/F3 BCR-ABL1 P465S (Homo sapiens, UniProt P00519+P11274, P465S); test: Cell growth inhibitory activity assay (CellTiter-Glo), Ba/F3 BCR-ABL1 P465S cells; conditions: 72 h, CTG cell viability
T9 construct: BCR (N-terminal fusion partner of the oncoprotein); expressed in transfected cells; host or cells: Ba/F3 (lentiviral transduction, monoclonal line)
Description: as §1, §2, §3, §4

Ba/F3 BCR-ABL1 T315I = target: T10, Ba/F3 BCR-ABL1 T315I (Homo sapiens, UniProt P00519+P11274, T315I); test: Cell growth inhibitory activity assay (CellTiter-Glo), Ba/F3 BCR-ABL1 T315I cells; conditions: 72 h, CTG cell viability
T10 construct: BCR (N-terminal fusion partner of the oncoprotein); expressed in transfected cells; host or cells: Ba/F3 (lentiviral transduction, monoclonal line)
Method in brief: as §5

Compound	IC50 [1] [nM]	IC50 (Ba/F3 BCR-ABL1 I502L) [nM]	IC50 (Ba/F3 BCR-ABL1 T315M) [nM]	IC50 (Ba/F3 BCR-ABL1 A337V) [nM]	IC50 (K562 cells) [nM]	IC50 (Ba/F3 parental cells) [nM]	IC50 (Ba/F3 BCR-ABL1 WT) [nM]	IC50 (Ba/F3 BCR-ABL1 V468F) [nM]	IC50 (Ba/F3 BCR-ABL1 A424T) [nM]	IC50 [2] [nM]	IC50 (Ba/F3 BCR-ABL1 P465S) [nM]	IC50 (Ba/F3 BCR-ABL1 T315I) [nM]
C[C@@H]1CCSc2nc3cc(C(=O)Nc4ccc(OC(F)(F)Cl)cc4)cc(-c4cnc5c(c4)C(=O)N(C)C5)c3n21 [T-20, (R)-N-(4-(chlorodifluoromethoxy)phenyl)-4-methyl-6-(6-methyl-5-oxo-6,7-dihydro-5H-pyrrolo[3,4-b]pyridin-3-yl)-3,4-dihydro-2H-benzo[4,5]imidazo[2,1-b][1,3]thiazine-8-carboxamide]	5 to 50	5 to 50	> 1000	50 to 1000	≤ 5	> 1000	≤ 5	50 to 1000	50 to 1000	50 to 1000	50 to 1000	5 to 50
C[C@@H]1COCc2nc3cc(C(=O)Nc4ccc(OC(F)(F)Cl)cc4)cc(-c4cnc5c(c4)C(=O)N(C)C5)c3n21 [T-21, (R)-N-(4-(chlorodifluoromethoxy)phenyl)-4-methyl-6-(6-methyl-5-oxo-6,7-dihydro-5H-pyrrolo[3,4-b]pyridin-3-yl)-3,4-dihydro-1H-benzo[4,5]imidazo[2,1-c][1,4]oxazine-8-carboxamide]	5 to 50	5 to 50	> 1000	50 to 1000	≤ 5	> 1000	≤ 5	50 to 1000	50 to 1000	5 to 50	50 to 1000	5 to 50
[2H]C([2H])([2H])N1Cc2ncc(-c3cc(C(=O)Nc4ccc(OC(F)(F)Cl)cc4)cc4nc5n(c34)[C@H](C)COC5)cc2C1=O [T-31, (R)-N-(4-(chlorodifluoromethoxy)phenyl)-4-methyl-6-(6-(methyl-d3)-5-oxo-6,7-dihydro-5H-pyrrolo[3,4-b]pyridin-3-yl)-3,4-dihydro-1H-benzo[4,5]imidazo[2,1-c][1,4]oxazine-8-carboxamide]	5 to 50	50 to 1000	5 to 50	50 to 1000	≤ 5	> 1000	≤ 5	5 to 50	5 to 50	5 to 50	50 to 1000	5 to 50
C[C@@H]1COCc2nc3cc(C(=O)Nc4ccc(OC(F)(F)Cl)cc4)cc(-c4cnc5c(c4)-c4nn(S(C)(=O)=O)cc4C5)c3n21 [T-42, (R)-N-(4-(chlorodifluoromethoxy)phenyl)-4-methyl-6-(2-(methylsulfonyl)-2,4-dihydropyrazolo[3',4':3,4]cyclopenta[1,2-b]pyridin-7-yl)-3,4-dihydro-1H-benzo[4,5]imidazo[2,1-c][1,4]oxazine-8-carboxamide]	50 to 1000	50 to 1000	50 to 1000	50 to 1000	≤ 5	> 1000	≤ 5	50 to 1000	50 to 1000	50 to 1000	50 to 1000	5 to 50
CC(C)n1cc2c(n1)-c1cc(-c3cc(C(=O)Nc4ccc(OC(F)(F)Cl)cc4)cc4nc5n(c34)[C@H](C)COC5)cnc1C2 [T-48, (R)-N-(4-(chlorodifluoromethoxy)phenyl)-6-(2-isopropyl-2,4-dihydropyrazolo[3',4':3,4]cyclopenta[1,2-b]pyridin-7-yl)-4-methyl-3,4-dihydro-1H-benzo[4,5]imidazo[2,1-c][1,4]oxazine-8-carboxamide]	≤ 5	5 to 50	> 1000	5 to 50	≤ 5	> 1000	≤ 5	5 to 50	5 to 50	≤ 5	50 to 1000	≤ 5
C[C@@H]1COCc2nc3cc(C(=O)Nc4ccc(OC(F)(F)Cl)cc4)cc(-c4cnc5c(c4)-c4nn(CC(F)(F)F)cc4C5)c3n21 [T-49, (R)-N-(4-(chlorodifluoromethoxy)phenyl)-4-methyl-6-(2-(2,2,2-trifluoroethyl)-2,4-dihydropyrazolo[3',4':3,4]cyclopenta[1,2-b]pyridin-7-yl)-3,4-dihydro-1H-benzo[4,5]imidazo[2,1-c][1,4]oxazine-8-carboxamide]	≤ 5	5 to 50	50 to 1000	5 to 50	≤ 5	> 1000	≤ 5	5 to 50	≤ 5	≤ 5	5 to 50	≤ 5
C[C@@H]1COCc2nc3cc(C(=O)Nc4ccc(OC(F)(F)Cl)cc4)cc(-c4cnc5c(c4)-c4nn(C6COC6)cc4C5)c3n21 [T-52, (R)-N-(4-(chlorodifluoromethoxy)phenyl)-4-methyl-6-(2-(oxetan-3-yl)-2,4-dihydropyrazolo[3',4':3,4]cyclopenta[1,2-b]pyridin-7-yl)-3,4-dihydro-1H-benzo[4,5]imidazo[2,1-c] [1,4]oxazine-8-carboxamide]	≤ 5	5 to 50	> 1000	50 to 1000	≤ 5	> 1000	≤ 5	5 to 50	5 to 50	5 to 50	50 to 1000	≤ 5

— patent EP4768484A1, “HETEROCYCLIC FUSED RING COMPOUND, AND COMPOSITION AND USE THEREOF” (Shenzhen TargetRx, Inc., priority 2023, dated 2025)
